Measurements taken from patent US20260138980A1, “SPIRO COMPOUNDS AND USES THEREOF IN THE FIELD OF MEDICINE” (Kind Pharmaceutical, priority 2023, published 2026).

System: EPO
Experiment: Determination of EPO inhibition rate by compounds using Hep3B cells (EPO ELISA of culture supernatant)
Assay type: cell-based
Conditions: Homo sapiens, EPO induced with 30 μM (6′-hydroxy-3′-(4-methoxyphenyl)-8′-oxo-8′H-spiro[cyclopentane-1,5′-indolizine]-7′-carbonyl)glycine or its analogues, test compound 48 hours
Procedure: Hep3B cells (from the Cell Bank of the Chinese Academy of Sciences, TCHu106) were seeded in a plate at a density of 5×10^4/mL and incubated overnight at 37° C. in a 5% CO2 incubator (Thermo Scientific BB150). The next day, the culture medium was replaced with medium containing 0.5% FBS (VivaCell C04001-500) to starve the cells for 6 hours. Subsequently, a DMSO solution of (6′-hydroxy-3′-(4-methoxyphenyl)-8′-oxo-8′H-spiro[cyclopentane-1,5′-indolizine]-7′-carbonyl)glycine or its analogues was added to achieve a final concentration of 30 μM. The plate was returned to the 37° C., 5% CO2 incubator for an additional 24 hours. Then, a DMSO solution of the test compound was added to achieve final concentrations of 30000 nM, 7500 nM, 1875 nM, 469 nM, 117 nM, 29 nM, 7.3 nM, 1.8 nM, 0.5 nM, and 0 nM (ten concentrations in total). Treatment continued for 48 hours. Cell culture supernatants were collected for EPO ELISA detection. The assay was performed according to the instructions of the ELISA kit (Sangon Biotech (Shanghai) Co., Ltd., D711311-0096). Absorbance was read at a wavelength of 450 nm using a microplate reader (Thermo Scientific Multiskan Go, 511191200).
The compound inhibition rate was calculated using the formula: Inhibition Rate=1-100%*(EPO value of the treated well−EPO value of the blank well)/(EPO value of the Control well−EPO value of the blank well). The IC50 value was calculated by linear fitting of the inhibition rates. Herein, the Control well refers to the cell-containing well treated for 72 hours with a DMSO solution containing 0 nM of the test compound but containing 30 μM of (6′-hydroxy-3′-(4-methoxyphenyl)-8′-oxo-8′H-spiro[cyclopentane-1,5′-indolizine]-7′-carbonyl)glycine or its analogues. The EPO level in this well was set as 100%. The blank well refers to a cell-containing well without the addition of any compound.

IC50	Structure (SMILES)
3.48 nM	Cc1ccc2c(c1F)C=CCC21CN2C=C(C(F)(F)F)C=C(OC(F)F)C2=N1 (stereo not shown) [Example 18, 8-Difluoromethoxy-5′-fluoro-6′-methyl-6-trifluoromethyl-2′H,3H-spiro[imidazo[1,2-a]pyridine-2,1′-naphthalene]]
20.4 nM	Fc1cccc2c1C=CC[C@]21CN2C=C(C(F)(F)F)C=C(OC(F)F)C2=N1 (single isomer, unassigned) [Example 16-B]
4.12 nM	Fc1c(Br)ccc2c1C(Cl)=CCC21CN2C=C(C(F)(F)F)C=C(OC(F)F)C2=N1 (stereo not shown) [Example 14, 6′-Bromo-4′-chloro-8-difluoromethoxy-5′-fluoro-6-trifluoromethyl-2′H,3H-spiro[imidazo[1,2-a]pyridine-2,1′-naphthalene]]
148 nM	FC(F)OC1=CC(C(F)(F)F)=CN2CC3(CC=C(C(F)(F)F)c4c3ccnc4Cl)N=C12 (stereo not shown) [Example 8, 1′-Chloro-8-difluoromethoxy-6,8′-bis(trifluoromethyl)-3H,6′H-spiro[imidazo[1,2-a]pyridine-2,5′-isoquinoline]]
116 nM	Fc1c(Br)ccc2c1C(I)=CCC21CN2C=C(C(F)(F)F)C=C(OC(F)F)C2=N1 (stereo not shown) [Example 13, 6′-Bromo-8-difluoromethoxy-5′-fluoro-4′-iodo-6-trifluoromethyl-2′H,3H-spiro[imidazo[1,2-a]pyridine-2,1′-naphthalene]]
2.12 nM	FC1=CC[C@@]2(CN3C=C(C(F)(F)F)C=C(OC(F)F)C3=N2)c2cccc(F)c21 (single isomer, unassigned) [Example 15-A]
181 nM	CC1=CCC2(CN3C=C(C(F)(F)F)C=C(OC(F)F)C3=N2)c2ccnc(Cl)c21 (stereo not shown) [Example 6, 1′-Chloro-8-difluoromethoxy-8′-methyl-6-trifluoromethyl-3H,6′H-spiro[imidazo[1,2-a]pyridine-2,5′-isoquinoline]]
365 nM	FC(F)OC1=CC(C(F)(F)F)=CN2C[C@]3(CC=Cc4c3ccnc4Cl)N=C12 (single isomer, unassigned) [Example 2-A]
813 nM	FC(F)OC1=CC(C(F)(F)F)=CN2CC3(CC=Cc4cnccc43)N=C12 (stereo not shown) [Example 20, 8-Difluoromethoxy-6-trifluoromethyl-3H,6′H-spiro[imidazo[1,2-a]pyridine-2,5′-isoquinoline]]
302 nM	Fc1cccc2c1C(I)=CCC21CN2C=C(C(F)(F)F)C=C(OC(F)F)C2=N1 (stereo not shown) [Example 19, 8-Difluoromethoxy-5′-fluoro-4′-iodo-6-trifluoromethyl-2′H,3H-spiro[imidazo[1,2-a]pyridine-2,1′-naphthalene]]
497 nM	O=[N+]([O-])c1c(Nc2cc(F)cc(Cl)c2)ccc2nonc12 [positive control compound, reference compound]
17.9 nM	FC1=CC[C@@]2(CN3C=C(C(F)(F)F)C=C(OC(F)F)C3=N2)c2ccnc(Cl)c21 (single isomer, unassigned) [Example 1-A]
26.8 nM	FC1=Cc2c(ccnc2Cl)C2(C1)CN1C=C(C(F)(F)F)C=C(OC(F)F)C1=N2 (racemic) [Example 10, 1′-Chloro-8-difluoromethoxy-7′-fluoro-6-trifluoromethyl-3H,6′H-spiro[imidazo[1,2-a]pyridine-2,5′-isoquinoline]]
109 nM	FC1=CC[C@]2(CN3C=C(C(F)(F)F)C=C(OC(F)F)C3=N2)c2cccc(F)c21 (single isomer, unassigned) [Example 15-B]
47.9 nM	FC(F)OC1=CC(C(F)(F)F)=CN2CC3(CC(Cl)=Cc4c3ccnc4Cl)N=C12 (stereo not shown) [Example 9, 1′,7′-Dichloro-8-difluoromethoxy-6-trifluoromethyl-3H,6′H-spiro[imidazo[1,2-a]pyridine-2,5′-isoquinoline]]
2150 nM	FC1=Cc2c(ccnc2Cl)[C@]2(C1)CN1C=C(C(F)(F)F)C=C(OC(F)F)C1=N2 (single isomer, unassigned) [Example 10-A]
6.45 nM	Fc1cccc2c1C=CC[C@@]21CN2C=C(C(F)(F)F)C=C(OC(F)F)C2=N1 (single isomer, unassigned) [Example 16-A]
1.08 nM	Fc1c(Br)ccc2c1C=CCC21CN2C=C(C(F)(F)F)C=C(OC(F)F)C2=N1 (stereo not shown) [Example 12, 6′-Bromo-8-(difluoromethoxy)-5′-fluoro-6-(trifluoromethyl)-2′H,3H-spiro[imidazo[1,2-a]pyridine-2,1′-naphthalene]]
29 nM	FC1=CCC2(CN3C=C(C(F)(F)F)C=C(OC(F)F)C3=N2)c2ccnc(Cl)c21 (racemic) [Example 1, 1′-Chloro-8-difluoromethoxy-8′-fluoro-6-trifluoromethyl-3H,6′H-spiro[imidazo[1,2-a]pyridine-2,5′-isoquinoline]]
26.9 nM	FC1=Cc2c(ccnc2Cl)[C@@]2(C1)CN1C=C(C(F)(F)F)C=C(OC(F)F)C1=N2 (single isomer, unassigned) [Example 10-B]
18.7 nM	FC(F)OC1=CC(C(F)(F)F)=CN2C[C@@]3(CC=Cc4c3ccnc4Cl)N=C12 (single isomer, unassigned) [Example 2-B]
12.2 nM	FC1=CCC2(CN3C=C(C(F)(F)F)C=C(OC(F)F)C3=N2)c2ccc(Br)c(F)c21 (stereo not shown) [Example 11, 6′-Bromo-8-difluoromethoxy-4′,5′-difluoro-6-trifluoromethyl-2′H,3H-spiro[imidazo[1,2-a]pyridine-2,1′-naphthalene]]
35.8 nM	FC(F)OC1=CC(C(F)(F)F)=CN2CC3(CC=Cc4c3ccnc4Cl)N=C12 (racemic) [Example 2, 1′-Chloro-8-difluoromethoxy-6-trifluoromethyl-3H,6′H-spiro[imidazo[1,2-a]pyridine-2,5′-isoquinoline]]
24.4 nM	FC(F)OC1=CC(C(F)(F)F)=CN2CC3(CC=C(Cl)c4c3ccnc4Cl)N=C12 (stereo not shown) [Example 7, 1′,8′-Dichloro-8-difluoromethoxy-6-trifluoromethyl-3H,6′H-spiro[imidazo[1,2-a]pyridine-2,5′-isoquinoline]]
705 nM	Cc1nccc2c1C=CCC21CN2C=C(C(F)(F)F)C=C(OC(F)F)C2=N1 (stereo not shown) [Example 17, 8-Difluoromethoxy-1′-methyl-6-trifluoromethyl-3H,6′H-spiro[imidazo[1,2-a]pyridine-2,5′-isoquinoline]]
7.01 nM	Fc1cccc2c1C=CCC21CN2C=C(C(F)(F)F)C=C(OC(F)F)C2=N1 (racemic) [Example 16, 8-(Difluoromethoxy)-5′-fluoro-6-trifluoromethyl-2′H,3H-spiro[imidazo[1,2-a]pyridine-2,1′-naphthalene]]
563 nM	FC1=CC[C@]2(CN3C=C(C(F)(F)F)C=C(OC(F)F)C3=N2)c2ccnc(Cl)c21 (single isomer, unassigned) [Example 1-B]
3.04 nM	FC1=CCC2(CN3C=C(C(F)(F)F)C=C(OC(F)F)C3=N2)c2cccc(F)c21 (racemic) [Example 15, 8-(Difluoromethoxy)-4′,5′-difluoro-6-(trifluoromethyl)-2′H,3H-spiro[imidazo[1,2-a]pyridine-2,1′-naphthalene]]
